SMILES strings stand for the structures. Read-outs that look alike come from different tables or passages of the source. Some results are limits rather than exact numbers.

This passage reports IC50 results from patent US20180237441A1, “Chemical Compounds” (GlaxoSmithKline Intellectual Property (No.2) Limited, priority 2015, published 2018).

In this assay the target is T1, PERK (Homo sapiens, UniProt Q9NZJ5).
T1 sequence (Q9NZJ5 30-1116): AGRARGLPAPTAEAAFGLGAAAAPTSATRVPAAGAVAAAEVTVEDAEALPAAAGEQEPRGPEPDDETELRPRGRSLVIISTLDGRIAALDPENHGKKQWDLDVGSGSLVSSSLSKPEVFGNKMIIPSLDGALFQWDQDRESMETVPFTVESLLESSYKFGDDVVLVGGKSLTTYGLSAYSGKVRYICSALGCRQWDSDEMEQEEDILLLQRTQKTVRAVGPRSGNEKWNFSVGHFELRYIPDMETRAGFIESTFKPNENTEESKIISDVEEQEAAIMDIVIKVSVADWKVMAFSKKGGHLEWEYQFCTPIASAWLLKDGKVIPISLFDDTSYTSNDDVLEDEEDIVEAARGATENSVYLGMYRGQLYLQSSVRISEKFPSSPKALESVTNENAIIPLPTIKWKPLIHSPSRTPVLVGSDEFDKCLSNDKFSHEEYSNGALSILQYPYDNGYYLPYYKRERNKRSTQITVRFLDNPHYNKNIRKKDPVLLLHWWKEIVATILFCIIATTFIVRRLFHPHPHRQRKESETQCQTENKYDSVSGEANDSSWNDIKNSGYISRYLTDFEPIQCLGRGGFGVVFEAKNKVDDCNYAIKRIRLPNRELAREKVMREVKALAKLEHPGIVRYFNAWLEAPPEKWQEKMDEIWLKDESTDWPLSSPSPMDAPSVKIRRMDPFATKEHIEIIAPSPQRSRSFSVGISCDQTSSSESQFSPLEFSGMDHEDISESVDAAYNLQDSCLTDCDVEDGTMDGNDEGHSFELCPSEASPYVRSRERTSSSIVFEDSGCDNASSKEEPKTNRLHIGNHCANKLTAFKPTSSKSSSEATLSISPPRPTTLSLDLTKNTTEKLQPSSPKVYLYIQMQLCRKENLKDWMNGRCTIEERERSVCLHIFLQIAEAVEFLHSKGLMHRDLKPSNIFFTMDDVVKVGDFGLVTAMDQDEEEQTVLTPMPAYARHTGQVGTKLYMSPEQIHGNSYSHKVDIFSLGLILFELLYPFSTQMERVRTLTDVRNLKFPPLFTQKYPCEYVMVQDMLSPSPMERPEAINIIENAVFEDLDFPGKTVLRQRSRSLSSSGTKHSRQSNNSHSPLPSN
The assay can be described thus: PERK enzyme assay (HTRF). Format: biochemical. Particulars: at least one experimental run. In outline:
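GST-PERK (0.75 nM final) pre-incubated 30–60 min with compound (≤1% DMSO) in HEPES pH 7.5/CHAPS/MgCl2/DTT, then 500 μM ATP and 40 nM biotin-eIF2α added for 60 min. EDTA quench; HTRF detection of phospho-eIF2α (Eu anti-rabbit/streptavidin-APC) read after 2 h; IC50 from concentration series.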

The mark [1] stands for this setting: PERK Enzyme (500 μM ATP) IC50, read-out: PERK Activity.
[2] abbreviates: 500 μM ATP, read-out: PERK Enzyme (500 μM ATP) IC50.

As for `CN1C(=O)N(c2ccc(-c3cn(C4CC4)c4ncnc(N)c34)c(F)c2)CC1c1cccc(Cl)c1` (single isomer, unassigned) [Example 153, 1-(4-(4-amino-7-cyclopropyl-7H-pyrrolo[2,3-d]pyrimidin-5-yl)-3-fluorophenyl)-4-(3-chlorophenyl)-3-methylimidazolidin-2-one], the IC50 under setting [1] was 100 to 1000 nM.
As for `CN1C(=O)N(c2ccc(-c3cn(C4CC4)c4ncnc(N)c34)c(F)c2)CC1c1ccc(F)cc1F` (single isomer, unassigned) [Example 154, 1-(4-(4-amino-7-cyclopropyl-7H-pyrrolo[2,3-d]pyrimidin-5-yl)-3-fluorophenyl)-4-(2,4-difluorophenyl)-3-methylimidazolidin-2-one], the IC50 is 988 nM under setting [2] and 100 to 1000 nM under setting [1].
With `CN1C(=O)N(c2ccc(-c3cn(C4CC4)c4ncnc(N)c34)c(F)c2)CC1c1ccc(F)cc1F` (single isomer, unassigned) [Example 155, 1-(4-(4-amino-7-cyclopropyl-7H-pyrrolo[2,3-d]pyrimidin-5-yl)-3-fluorophenyl)-4-(2,4-difluorophenyl)-3-methylimidazolidin-2-one], under setting [1], the IC50 is < 100 nM.
Regarding `CN1C(=O)N(c2ccc(-c3cn(C)c4ncnc(N)c34)c(F)c2)CC1c1cc(F)c(F)cc1F` (single isomer, unassigned) [Example 158, 1-(4-(4-amino-7-methyl-7H-pyrrolo[2,3-d]pyrimidin-5-yl)-3-fluorophenyl)-3-methyl-4-(2,4,5-trifluorophenyl)imidazolidin-2-one], the IC50 under setting [1] is < 100 nM.
Consider `CN1C(=O)N(c2ccc(-c3cn(C)c4ncnc(N)c34)c(F)c2)CC1c1cc(F)c(F)cc1F` (single isomer, unassigned) [Example 159, 1-(4-(4-amino-7-methyl-7H-pyrrolo[2,3-d]pyrimidin-5-yl)-3-fluorophenyl)-3-methyl-4-(2,4,5-trifluorophenyl)imidazolidin-2-one], for which the IC50 under setting [1] lay in the range of 100 to 1000 nM.
Regarding `CN1C(=O)N(c2ccc(-c3cn(C4CC4)c4ncnc(N)c34)c(F)c2)CC1c1cc(F)c(F)cc1F` (single isomer, unassigned) [Example 160, 1-(4-(4-amino-7-cyclopropyl-7H-pyrrolo[2,3-d]pyrimidin-5-yl)-3-fluorophenyl)-3-methyl-4-(2,4,5-trifluorophenyl)imidazolidin-2-one], the IC50 under setting [1] was < 100 nM.
In the case of `CN1C(=O)N(c2ccc(-c3cn(C4CC4)c4ncnc(N)c34)c(F)c2)CC1c1cc(F)c(F)cc1F` (single isomer, unassigned) [Example 161, 1-(4-(4-amino-7-cyclopropyl-7H-pyrrolo[2,3-d]pyrimidin-5-yl)-3-fluorophenyl)-3-methyl-4-(2,4,5-trifluorophenyl)imidazolidin-2-one], the IC50 under setting [1] is < 100 nM.
Take `CN1C(=O)N(c2ccc(-c3cn(C4CC4)c4ncnc(N)c34)c(F)c2)CC1c1ccc(F)cc1` (single isomer, unassigned) [Example 163, 1-(4-(4-amino-7-cyclopropyl-7H-pyrrolo[2,3-d]pyrimidin-5-yl)-3-fluorophenyl)-4-(4-fluorophenyl)-3-methylimidazolidin-2-one]: the IC50 under setting [1] was < 100 nM.
For the compound `CN1C(=O)N(c2ccc(-c3cn(C4CC4)c4ncnc(N)c34)c(F)c2)CC1c1ccc(F)cc1` (single isomer, unassigned) [Example 164, 1-(4-(4-amino-7-cyclopropyl-7H-pyrrolo[2,3-d]pyrimidin-5-yl)-3-fluorophenyl)-4-(4-fluorophenyl)-3-methylimidazolidin-2-one], under setting [1], the IC50 was 100 to 1000 nM.
With `CN1C(=O)N(c2ccc(-c3cn(C4CC4)c4ncnc(N)c34)c(F)c2)CC1c1ccccc1` (single isomer, unassigned) [Example 165, 1-(4-(4-amino-7-cyclopropyl-7H-pyrrolo[2,3-d]pyrimidin-5-yl)-3-fluorophenyl)-3-methyl-4-phenylimidazolidin-2-one], the IC50 is 4 nM under setting [2] and < 100 nM under setting [1].
